Source: patent publication US20140329755A1, “COMBINATION THERAPY FOR THE TREATMENT OF ARRHYTHMIAS OR HEART FAILURE” (Gilead Sciences, Inc., priority 2013, published 2014)
pIC50: −log10 of the molar value. Like-named read-outs stand apart in the source and are kept apart here.

What was measured:
isolated rat right atria [1] = experiment: ATX-II-induced arrhythmias in spontaneously beating isolated rat right atria (arrhythmia score); settings: for pIC50: isolated rat right atria, read-out: IC50, prevention of ATX-II induced arrhythmias and diastolic dysfunction
Method: (§1) Rats were anesthetized by intraperitoneal injection of 60 mg/kg ketamine and 8 mg/kg xylazine. The heart was rapidly removed and immersed in oxygenated Krebs-Henseleit buffer (in mmol/L: 118 NaCl, 4.8 KCl, 1.2 KH2PO4, 2.5 CaCl2, 1.2, MgSO4, 2 pyruvic acid, 5.5 glucose, 0.5 Na2EDTA, and 25 NaHCO3, pH 7.4). Rat right atria were quickly excised and suspended in a chamber of the Danish Myo Technologies (DMT) myograph containing 8 ml of oxygenated Krebs-Henseleit buffer. Mechanical and electrical changes were measured simultaneously in spontaneously beating atria. Isometric tension was recorded by a force transducer connected to a PowerLab data acquisition system (AD Instruments, Colorado Springs, Colo.). A bipolar electrode was attached to the surface of the atrium to record an electrogram. After stabilization, the atria were preincubated with a late INa inhibitor (0.1 μmol/L GS967 or 3 μmol/L ranolazine), a CaMKII inhibitor ((0.3 μmol/L AIP or 0.3 μmol/L KN-93) or their combination for 30 min, then treated with 50 nmol/L ATX-II to induce arrhythmias and diastolic dysfunction.
(§2) Isolated right atria beat spontaneously at a rate of 298+12 bpm. ATX-II induced premature beats, tachyarrhythmia and fibrillation in rat isolated right atria. Arrhythmias were recorded for 30 min following ATX-II treatment, and quantified using an arbitrary numerical grading of perceived severity as described previously (32) and shown in Table 1.

isolated rat right atria [2] = experiment: ATX-II-induced increase of diastolic tension in isolated rat right atria; settings: 3 μM RAN, 0.1 μM GS-967, 0.3 μM KN-93, 0.3 μM AIP, alone or combined, 50 nmol/L ATX-II
Method: as §1

isolated rat right atria [3] = experiment: ATX-II-induced AF in isolated rat right atria; settings: 3 μmol/L ranolazine, 100 nmol/L GS967, 300 nmol/L KN-93, 300 nmol/L AIP, alone or combined; FIG. 1
Method: as §1, §2

[4] = test system: isolated ventricular myocytes and hearts; settings: cited from earlier work
late INa [5] = settings: cited from earlier work
peak INa = peak INa (Homo sapiens, UniProt Q14524); settings: cited from earlier work
late INa [6] = settings: isolated hearts; read-out: IC50, ATX-II-induced late INa; cited from earlier work
[7] = test system: isolated rat atrial myocytes; experiment: ATX-II-induced diastolic Ca2+ increase in isolated rat atrial myocytes; format: cell-based; settings: 100 nmol/L GS967, 300 nmol/L AIP, alone or combined; FIG. 3
Method: Adult male rats were anesthetized and hearts were rapidly removed and perfused in a retrograde mode (Langendorff preparation) with a modified Tyrode solution containing (in mmol/L): NaCl (135), KCl (4.6), MgCl2 (1.1), NaH2PO4 (1) glucose (10), HEPES (10), pH 7.4. Hearts were perfused for 5 min with a nominal Ca^2+-free Tyrode solution, then with a low Ca^2+ (2 µmol/L) solution containing 0.896 mg/ml collagenase type II (Worthington, USA) and 0.68 mg/ml bovine serum albumin (BSA) for 8-11 min at 37° C. […]
[Molecular Probes, USA], indo-1 AM [Molecular Probes] or 5 μmol/L Asante NaTRIUM Green 2 AM (Teflabs, USA) by incubation for 25 min at 23° C. in bath solution containing 1.0 mmol/L Ca^2+, and 2.5 μmol/L pluronic acid (Molecular Probes). Fluo-4 was excited at 488 nm, and the fluorescence was acquired at wavelengths >505 nm in the line scan mode or XY mode of the confocal system. Asante NaTRIUM Green 2 was excited at 543 nm, and fluorescence was acquired at wavelengths >560 nm in the XY scan mode. Intracellular calcium concentrations were monitored in electrically stimulated cells loaded with indo-1 AM using an IonOptix spectrophotometer (IonOptix, Milton, Mass.). […] Emitted fluorescence (405 nm and 485 nm) was detected by a photomultiplier tube. […] Fluorescent images were analyzed using ImageJ software (NIH) and Origin 8.1 (OriginLab, USA).

[8] = 3 μM RAN, 0.1 μM GS-967, 0.3 μM KN-93, 0.3 μM AIP, alone or combined, 30 min preincubation, then 50 nmol/L ATX-II
[9] = Rattus norvegicus, 3 μM RAN, 0.1 μM GS-967, 0.3 μM KN-93, 0.3 μM AIP, alone or combined, 30 min preincubation, then 50 nmol/L ATX-II, read-out: measured % Inhibition of ATX-II-induced arrhythmias
[10] = Rattus norvegicus, read-out: Measured % Inhibition of ATX-II-induced increase of diastolic tension

Sequence of peak INa (Q14524 whole entry): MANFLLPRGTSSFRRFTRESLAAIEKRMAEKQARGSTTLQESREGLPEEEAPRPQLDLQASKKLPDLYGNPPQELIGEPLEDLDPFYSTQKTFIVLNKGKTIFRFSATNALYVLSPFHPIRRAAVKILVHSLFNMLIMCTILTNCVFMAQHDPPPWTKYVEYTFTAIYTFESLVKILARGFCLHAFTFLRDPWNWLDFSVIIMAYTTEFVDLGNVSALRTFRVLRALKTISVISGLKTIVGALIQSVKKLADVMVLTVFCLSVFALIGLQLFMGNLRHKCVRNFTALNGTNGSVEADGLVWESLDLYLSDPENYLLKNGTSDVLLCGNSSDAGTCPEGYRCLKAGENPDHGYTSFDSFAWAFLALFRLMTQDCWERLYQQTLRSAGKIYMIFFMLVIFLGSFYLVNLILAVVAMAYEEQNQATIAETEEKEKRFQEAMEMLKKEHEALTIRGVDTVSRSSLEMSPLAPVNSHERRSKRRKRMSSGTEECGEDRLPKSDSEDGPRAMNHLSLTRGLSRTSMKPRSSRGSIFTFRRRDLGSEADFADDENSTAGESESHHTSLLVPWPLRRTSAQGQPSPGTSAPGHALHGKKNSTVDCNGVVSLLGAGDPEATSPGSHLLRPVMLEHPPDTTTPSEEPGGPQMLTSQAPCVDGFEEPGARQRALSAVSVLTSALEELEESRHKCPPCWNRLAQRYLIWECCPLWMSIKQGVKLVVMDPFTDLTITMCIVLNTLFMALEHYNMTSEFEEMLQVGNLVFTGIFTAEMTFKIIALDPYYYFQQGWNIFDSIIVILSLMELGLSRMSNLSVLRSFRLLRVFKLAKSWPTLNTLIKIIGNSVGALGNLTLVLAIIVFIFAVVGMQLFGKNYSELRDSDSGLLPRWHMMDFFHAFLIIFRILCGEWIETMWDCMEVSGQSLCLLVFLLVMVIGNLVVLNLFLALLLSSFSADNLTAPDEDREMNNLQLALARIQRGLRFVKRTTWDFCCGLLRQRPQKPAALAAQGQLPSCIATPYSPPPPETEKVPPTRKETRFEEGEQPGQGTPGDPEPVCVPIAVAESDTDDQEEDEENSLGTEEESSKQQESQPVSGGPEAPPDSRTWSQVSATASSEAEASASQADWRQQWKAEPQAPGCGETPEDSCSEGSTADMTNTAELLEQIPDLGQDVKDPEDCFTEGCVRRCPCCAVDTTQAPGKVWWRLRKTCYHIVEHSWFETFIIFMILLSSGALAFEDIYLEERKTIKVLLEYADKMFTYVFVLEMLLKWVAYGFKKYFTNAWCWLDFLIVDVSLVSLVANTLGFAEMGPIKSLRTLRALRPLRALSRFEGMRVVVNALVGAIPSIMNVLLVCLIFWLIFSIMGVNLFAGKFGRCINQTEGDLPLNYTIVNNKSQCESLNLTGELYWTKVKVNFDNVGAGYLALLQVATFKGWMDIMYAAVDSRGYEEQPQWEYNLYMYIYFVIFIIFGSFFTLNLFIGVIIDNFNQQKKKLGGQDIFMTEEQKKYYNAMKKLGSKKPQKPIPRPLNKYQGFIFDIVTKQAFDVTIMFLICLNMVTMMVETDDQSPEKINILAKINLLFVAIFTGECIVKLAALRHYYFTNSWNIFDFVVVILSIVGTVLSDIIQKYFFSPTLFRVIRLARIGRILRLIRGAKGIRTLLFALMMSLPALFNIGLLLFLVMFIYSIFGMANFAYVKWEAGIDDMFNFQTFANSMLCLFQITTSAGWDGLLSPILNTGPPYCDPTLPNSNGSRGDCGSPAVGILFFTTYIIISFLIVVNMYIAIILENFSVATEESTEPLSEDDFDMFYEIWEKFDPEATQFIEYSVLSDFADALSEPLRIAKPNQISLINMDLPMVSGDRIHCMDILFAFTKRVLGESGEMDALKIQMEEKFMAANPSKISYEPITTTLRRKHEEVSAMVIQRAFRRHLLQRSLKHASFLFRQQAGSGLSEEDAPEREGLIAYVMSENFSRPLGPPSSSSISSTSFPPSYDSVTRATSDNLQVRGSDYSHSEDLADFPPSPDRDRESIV

SMILES | measured % Inhibition of ATX-II-induced arrhythmias (isolated rat right atria [1]; [8]) | measured % Inhibition of ATX-II-induced arrhythmias (isolated rat right atria [1]; 3 μM RAN, 0.1 μM GS-967, 0.3 μM KN-93, 0.3 μM AIP, alone or combined, 30 min preincubation, then 50 nmol/L ATX-II, listed as RAN) | pIC50 (isolated rat right atria [1]) | Measured % Inhibition of ATX-II-induced increase of diastolic tension (isolated rat right atria [2]) | Measured % Inhibition of ATX-II-induced increase of diastolic tension (isolated rat right atria [2]; listed as RAN) | effect on ATX-II-induced AF (isolated rat right atria [3]) | proarrhythmic effects (afterdepolarizations and torsades de pointes) of ATX-II and E-4031 [4] | pIC50 (late INa [5]; ventricular myocytes, read-out: IC50, ATX-II-induced late INa) | reduction of late INa and arrhythmias compared with flecainide or ranolazine (late INa [5]; vs flecainide or ranolazine) | Reduction of peak INa (peak INa; holding potential of −120 mV) | Reduction of peak INa (peak INa; holding potential −80 mV) | pIC50 (late INa [6]) | inhibition at 0.1 µM (isolated rat right atria [1]; [9]) | inhibition of the ATX-II-induced increase of diastolic Ca2+ [7] | inhibition at 0.1 µM (isolated rat right atria [2]; [10]) | inhibition at 0.3 µM (isolated rat right atria [1]; [9]) | effect on ATX-II induced arrhythmias and diastolic dysfunction (isolated rat right atria [1]; rat right atria) | inhibition at 0.3 µM (isolated rat right atria [2]; [10])
COc1ccccc1OCC(O)CN1CCN(CC(=O)Nc2c(C)cccc2C)CC1 (racemic) [ranolazine, (±)—N-(2,6-dimethylphenyl)-4-[2-hydroxy-3-(2-methoxyphenoxy)-propyl]-1-piperazineacetamide] | 28% | 23.8 ± 3.1% | 4.83 | 10.4% | 5.5 ± 1.5% | failed to attenuate |  |  |  |  |  |  |  |  |  |  |  | 
FC(F)(F)Oc1ccc(-c2ccc3nnc(C(F)(F)F)n3c2)cc1 [GS-967, 6-[4-(trifluoromethoxy)phenyl]-3-(trifluoromethyl)[1,2,4]triazolo[4,3-a]pyridine] | 34.2 ± 4.8% |  | 5.89 |  |  | failed to attenuate | prevented and reversed | 6.89 | more potent and effective | minimal | increased | 6.68 | 34% | 13% | 9.1% |  |  | 
COc1ccc(S(=O)(=O)N(CCO)c2ccccc2CN(C)C/C=C/c2ccc(Cl)cc2)cc1 [KN-93] | 24.1 ± 7.6% |  |  |  |  | failed to attenuate |  |  |  |  |  |  |  |  |  | 23% | prevented | 8.4%
